One test relates to MUC5AC protein. Nature of the test: Inhibition of MUC5AC protein production (immunoassay) by the compounds. The test is classed as cell-based, human. To be noted: MUC5AC secretion, TNF-α 20 ng/mL. The protocol:
For immunoassay of the resulting MUC5AC, the supernatant (50 uL) recovered was dispensed on to a 96-well plate and dried in a thermostat set at 50° C. It was washed with PBS supplemented with 1% BSA and reacted with an MUC5AC antibody (abcam, USA) at room temperature for 1 hour. A secondary antibody was dispensed thereto for reaction for 1 hour. It was washed again and then reacted with a 3,3′,5,5′-tetramethylbenzidine peroxide solution for 20 minutes. After the reaction was stopped with a sulfuric acid solution, the degree of color development was measured at 450 nm.
As a result, as shown in the following Table 6, the amount of MUCSAC secretion increased in the group treated with TNF-α.

The subject of test [1] is inflammatory cells in the bronchoalveolar lavage fluid. Nature of the test: Inflammatory cells in bronchoalveolar lavage fluid of the COPD mouse model (cigarette smoke + LPS). The test is classed as in vivo, C57BL/6N mice. To be noted: BALF, vs COPD-induced group. The protocol:
Six-week-old male SPF (specific pathogen-free) C57BL/6N mice (22 to 24 g) were supplied by Koatech (Korea). These animals were fed with a sufficient amount of solid feed (no antibiotics, Samyang Feed Co.) and water until the day of the experiment. They were allowed to adapt for 1 week in a light-dark cycle environment at a temperature of 22±2° C. and a humidity of 55±15%, and then subjected to the experiment.
The animal model was exposed to cigarette smoke to induce chronic obstructive pulmonary disease. 3R4F Kentuchy Reference Cigarettes as standard cigarettes for use to generate cigarette smoke were supplied by University of California (USA). The standard cigarettes contain 9.4 mg of tar, 11 mg of total particle matter (TPM), and 12 mg of carbon monoxide per 1 cigarette. The standard cigarettes were used after harmonization for 48 hours to 72 hours at a temperature of 22±1° C. and a humidity of 60±2%. Further, Cigarette Smoke Generator manufactured by Korea BioLink (Korea) was used for exposure to cigarette smoke. Cigarette smoke was inhaled for 1 hour (8 pcs/hour) for 7 days from 1 hour after oral administration of a sample. 10 μg of LPS (lipopolysaccharide) in PBS 50 μL was injected intranasally to each mouse on the 4th day of the experiment after the mouse was anesthetized with zoletyl 1 hour before the exposure to cigarette smoke. The smoking condition was 8 puffs per 1 standard cigarette (volume: 45 mL, duration: 2 seconds, and interval: 1 time/min).
The active fraction of Magnoliae flos (15, 30 mg/kg) and roflumilast (10 mg/kg) as therapeutic substances were dissolved in 0.5% sodium carboxymethyl cellulose and were orally administered 1 hour before the exposure to cigarette smoke.
The experimental groups were divided into (i) normal control (NC) group; (ii) cigarette smoke+LPS exposure group (COPD); (iii) experimental group administered with roflumilast (ROF) (10 mg/kg, p.o) 1 hour before the exposure to cigarette smoke+LPS; and (iv) experimental group administered with the active fraction of Magnoliae flos (15, 30 mg/kg, p.o; Magnoliae flos 15 and Magnoliae flos 30) 1 hour before the exposure to cigarette smoke+LPS. […] Then, they were administered in the same manner as above.
The bronchial alveolar lavage fluid was separated from the animal model treated with the active fraction and the compounds of Magnoliae flos in <Test Example 6-2> above in the following manner, and the number of inflammatory cells was measured.
Specifically, a mouse sonde was inserted into the bronchial tube, a 1 mL syringe containing 0.7 mL of DPBS (Dulbecco's Phosphate-Buffered Saline) was connected thereto, and DPBS was injected into the lung. The injected DPBS was recovered, and this procedure was repeated twice. The bronchoalveolar lavage fluid separated by DPBS was centrifuged at 1,500 rpm for 15 minutes to make a cell pellet. The supernatant was stored frozen at −70° C. for cytokine analysis. Each cell obtained was suspended in DPBS, attached to a slide glass using a cytospin centrifuge, and Diff-Quik stained. The number of inflammatory cells in each sample was counted through microscopic examination, and the inhibition rate was calculated according to the following Equation 3.
Inhibition rate=(Value of COPD-induced group−value of target substance administered group)×100/(Value of COPD-induced group) [Equation 3]

In the next test the test system is reactive oxygen species. Kind of test: Production of active oxygen species in BALF of the COPD model (DCF-DA). The format is in vivo, C57BL/6N mice. To be noted: for Active oxygen inhibition rate (%) / production of active oxygen species (in words): vs COPD-induced group; for production of active oxygen species (in words): 15 and 30 mg/kg. The method, then: Production of active oxygen species in the bronchoalveolar lavage fluid obtained in <Test Example 6-3> above was confirmed by the following method.
Specifically, the separated BALF (200 μL) was treated to the final concentration of 20 μM of DCF-DA (dihydrodichlorofluorescein diacetate, Sigma-Aldrich, USA), followed by culturing for 30 minutes and measurement using Fluorescence (Molecular Device, USA). The inhibition rate was calculated by Equation 3 above.

The next test deals with IL-6. Kind of test: IL-6 level in BALF of the COPD model (ELISA). The test is classed as in vivo, C57BL/6N mice. To be noted: vs COPD-induced group; for IL-6 inhibition rate (%): BALF. The protocol: (§1) Cytokines were measured in the cell supernatant obtained in <Test Example 6-3> above by the following method. Specifically, the levels of IL-6 (R & D System, USA) and TNF-α (BD Bioscience, USA) in the separated BALF were measured by enzyme-linked immuno-sorbent assay (ELISA). Each cytokine analysis was carried out according to the manufacturer's test method.

A further test has as its system TNF-α. Nature of the test: TNF-α level in BALF of the COPD model (ELISA). The test is classed as in vivo, C57BL/6N mice. To be noted: vs COPD-induced group; for TNF-α inhibition rate (%): BALF. The protocol:
as §1

Take `COc1ccc([C@@H]2OC[C@H]3[C@@H]2CO[C@@H]3c2ccc3c(c2)OCO3)cc1OC` [Compound S7, fargesin]: the “Inhibition rate (%)” value is 0.79% in the test on MUC5AC protein (2.5 μM), 1.69% in the test with MUC5AC protein (5 μM) and 11.05% in the test on MUC5AC protein (10 μM). Moreover, the “Inhibition rate of inflammatory cell infiltration (%) Macrophage” value (shortened to “Inhibition rate … (%) Macrophage”) is on record as 37.1 ± 2.8% in test [1] (15 mg/kg p.o.) and 34.8 ± 6.1% in test [1] (30 mg/kg p.o.). Also, the entries for the “Inhibition rate of inflammatory cell infiltration (%) Neutrophil” value (from here on “Inhibition rate … (%) Neutrophil”) in test [1] (15 mg/kg p.o.) and in test [1] (30 mg/kg p.o.) were 51.7 ± 6.3% and 38.2 ± 5.4%, respectively. The results for the “Inhibition rate of inflammatory cell infiltration (%) Total inflammatory cells” value (“Inhibition rate … (%) Total inflammatory cells” for short) in test [1] (15 mg/kg p.o.) and in test [1] (30 mg/kg p.o.) were 44.1 ± 3.7% and 34.1 ± 6.1%, respectively. Moreover, the “increase in inflammatory cells (in words)” value in test [1] was “effectively inhibited”. Further, the “rate of inhibiting reactive oxygen compared with ROF drug control group (in words)” value in the test on reactive oxygen species (15 mg/kg) and in the test with reactive oxygen species (30 mg/kg) was “higher rates of inhibiting reactive oxygen than that of the drug control group treated with ROF” throughout. For the same compound, the “Active oxygen inhibition rate (%)” value in the test with reactive oxygen species (15 mg/kg p.o.) came out at 47.5 ± 5.2%; with reactive oxygen species (30 mg/kg p.o.), 39.6 ± 6.9%. Also, the “production of active oxygen species (in words)” value (shortened to “production”) in the test with reactive oxygen species was “higher inhibition rate in the low dose groups”. Moreover, the “IL-6 inhibition rate (%)” value with IL-6 (15 mg/kg p.o.) turned out to be 50.8 ± 17.0%; with IL-6 (30 mg/kg p.o.) it was 31.4 ± 9.6%. Also, the “TNF-α inhibition rate (%)” value with TNF-α (15 mg/kg p.o.) was found to be 49.1 ± 2.6%; with TNF-α (30 mg/kg p.o.) it was 34.1 ± 7.1%.
Turning to `COc1cc([C@H]2OC[C@H]3[C@@H]2CO[C@@H]3c2ccc3c(c2)OCO3)cc(OC)c1OC` [Compound S6, aschantin], the “Inhibition rate (%)” value in the test with MUC5AC protein (2.5 μM) came out at 0.15%; in the test with MUC5AC protein (5 μM), 4.19%; in the test on MUC5AC protein (10 μM), 1.2%. The “Inhibition rate … (%) Macrophage” value in test [1] (15 mg/kg p.o.) is given as 37.8 ± 5.3%; in test [1] (30 mg/kg p.o.) it was 26.0 ± 5.6%. For the same compound, the “Inhibition rate … (%) Neutrophil” value in test [1] (15 mg/kg p.o.) is on record as 50.7 ± 5.9%; in test [1] (30 mg/kg p.o.), 66.3 ± 5.9%. Further, the results for the “Inhibition rate … (%) Total inflammatory cells” value in test [1] (15 mg/kg p.o.) and in test [1] (30 mg/kg p.o.) were 42.8 ± 2.4% and 43.7 ± 4.7%, respectively. Moreover, the “increase in inflammatory cells (in words)” value in test [1] is on record as “effectively inhibited”. Moreover, the “rate of inhibiting reactive oxygen compared with ROF drug control group (in words)” value in the test with reactive oxygen species (15 mg/kg) and in the test with reactive oxygen species (30 mg/kg) was “higher rates of inhibiting reactive oxygen than that of the drug control group treated with ROF” throughout. Further, the “Active oxygen inhibition rate (%)” value is 30.6 ± 7.6% in the test with reactive oxygen species (15 mg/kg p.o.) and 33.5 ± 6.9% with reactive oxygen species (30 mg/kg p.o.). In the test on reactive oxygen species, the “production” value is “relatively higher inhibition rates in a manner depending on concentration”. Besides, the “IL-6 inhibition rate (%)” value in the test on IL-6 (15 mg/kg p.o.) is 59.3 ± 7.2%; in the test on IL-6 (30 mg/kg p.o.), 62.9 ± 6.0%. Also, the “IL-6 in the bronchoalveolar lavage fluid (in words)” value with IL-6 was “concentration-dependent decrease”. Moreover, the “TNF-α inhibition rate (%)” value with TNF-α (15 mg/kg p.o.) is given as 39.8 ± 10.2%; in the test on TNF-α (30 mg/kg p.o.), 47.8 ± 4.7%. Moreover, in the test on TNF-α, the “TNF-α secretion in the bronchoalveolar lavage fluid (in words)” value is listed as “concentration-dependent inhibition”.
With `COc1ccc([C@H]2OC[C@H]3[C@@H]2CO[C@@H]3c2ccc3c(c2)OCO3)cc1OC` [Compound S5, dimethoxyaschantin], the “Inhibition rate (%)” value with MUC5AC protein (2.5 μM) came out at 13.93%; with MUC5AC protein (5 μM), 10.12%; in the test on MUC5AC protein (10 μM), 16.43%. The entries for the “Inhibition rate … (%) Macrophage” value in test [1] (15 mg/kg p.o.) and in test [1] (30 mg/kg p.o.) were 28.3 ± 7.2% and 37.1 ± 7.1%, respectively. Besides, the “Inhibition rate … (%) Neutrophil” value in test [1] (15 mg/kg p.o.) is listed as 44.2 ± 4.1%; in test [1] (30 mg/kg p.o.) it was 53.2 ± 5.4%. Further, the entries for the “Inhibition rate … (%) Total inflammatory cells” value in test [1] (15 mg/kg p.o.) and in test [1] (30 mg/kg p.o.) were 33.0 ± 4.4% and 43.2 ± 5.4%, respectively. In addition, the “Active oxygen inhibition rate (%)” value in the test on reactive oxygen species (15 mg/kg p.o.) is listed as 31.3 ± 2.5%; in the test on reactive oxygen species (30 mg/kg p.o.), 39.7 ± 3.5%. Further, the “production” value with reactive oxygen species is recorded as “relatively higher inhibition rates in a manner depending on concentration”. Besides, the “IL-6 inhibition rate (%)” value was determined as 36.1 ± 5.5% in the test on IL-6 (15 mg/kg p.o.) and 48.8 ± 4.4% in the test with IL-6 (30 mg/kg p.o.). In the test with IL-6, the “IL-6 in the bronchoalveolar lavage fluid (in words)” value is reported as “concentration-dependent decrease”. Further, the “TNF-α inhibition rate (%)” value was determined as 32.9 ± 4.8% with TNF-α (15 mg/kg p.o.) and 39.1 ± 1.9% with TNF-α (30 mg/kg p.o.). In the test on TNF-α, the “TNF-α secretion in the bronchoalveolar lavage fluid (in words)” value is “concentration-dependent inhibition”.

The values are drawn from patent US10376553B2, “Pharmaceutical composition for preventing and treating chronic obstructive lung disease containing, as active ingredient, Magnoliae flos extract, fraction, or active fraction thereof” (KOREA RESEARCH INSTITUTE OF BIOSCIENCE AND BIOTECHNOLOGY, priority 2015, dated 2019).
